Source: PubChem BioAssay AID1626 (SRMLSC, 2009)
pIC50: −log10 of the molar value.

Test system: M. tuberculosis H37Rv growth inhibition
Experiment: M. tuberculosis H37Rv growth inhibitors, H37Rv strain (AID 1626)
Conditions: for IC90: measured here: IC90 against H37Rv; for CC50: measured here: Vero cell cytotoxicity

SMILES | pIC50 | IC90 | CC50
CCOC(=O)c1c(C)oc2ccc(OC(=O)c3cccs3)cc12 | 5.68 | 13.6 µM | –
CCOC(=O)c1cc(-c2csc(COc3ccc(Cl)cc3)n2)on1 | > 6.71 | 2.41 µM | –
O=C(NCc1nnc2c3ccccc3c(-c3ccccc3)nn12)c1ccc(Cl)cc1 | 5.52 | 3.32 µM | > 40 µM
Cc1ccc(-c2nc(NCc3ccco3)c3ccccc3n2)cc1 | 5.03 | 16.2 µM | > 40 µM
CCOC(=O)c1ccc(NC(=O)CCc2nc(-c3ccccc3)no2)cc1 | 5.63 | > 100 µM | > 40 µM
Cc1c(C(=O)Oc2cccc3cccnc23)cccc1[N+](=O)[O-] | 5.19 | 7.5 µM | > 40 µM
O=C(CSc1ccncc1)Nc1ccc2ccccc2c1 | 5.94 | > 100 µM | –
Cn1c(NC(=O)c2cccc(Cn3cc(Cl)cn3)c2)nc2ccccc21 | – | – | > 40 µM
CC(C)c1c(O)nc(SCC(=O)Nc2ccc3c(c2)CCC3)[nH]c1=O | 4.48 | > 100 µM | –
CCCCC(=O)c1ccc(O)cc1 | 4.82 | > 100 µM | –
Cc1ccc(C(=O)/C=C/c2ccccc2[N+](=O)[O-])cc1 | 5.38 | 7.62 µM | 26.5 µM
COc1ccc(NC(=O)CSC2=NCCN2)cc1 | – | > 100 µM | –
O=C(O)c1[nH]c(=O)[nH]c(=O)c1F | 5.18 | 18.4 µM | > 40 µM
COc1ccc(CCNC(=O)c2ccc(CN3CCC(Cc4ccccc4)CC3)cc2)cc1 | – | > 100 µM | > 40 µM
O=C(NCc1ccco1)c1cc([N+](=O)[O-])cc([N+](=O)[O-])c1 | 5.84 | 1.65 µM | –
CCNc1nc(NC(C)(C)C)nc(N2CCCCC2)n1 | 4.80 | 29.5 µM | > 40 µM
O=C(/C=C/c1ccc([N+](=O)[O-])s1)N1CCCCC1 | 5.19 | 10.6 µM | > 40 µM
O=C(NC12CC3CC(CC(C3)C1)C2)c1ccc(-c2ccc(Br)cc2)o1 | 5.18 | 12.7 µM | 35.3 µM
CC(C)(C)c1cc(NCc2ccccn2)n2ncc(-c3ccc(Cl)cc3)c2n1 | 6.18 | 6.15 µM | > 40 µM
CCN1CCN(Cc2ccc(NC(=O)c3cc(NC(=O)c4cc(-c5ccc(OC)cc5)n[nH]4)cc(OC)c3)cc2C(F)(F)F)CC1 | 5.36 | 5.93 µM | 6.28 µM
COC(=O)c1cc(NC(=O)N2c3ccccc3Sc3ccccc32)cc(C(=O)OC)c1 | – | – | > 40 µM

SMILES | pIC50 | IC90 | CC50
Cc1ccc(S(=O)(=O)NCCC(=O)Nc2ccc(C)c(Cl)c2)cc1C | 4.70 | > 100 µM | > 40 µM
Cc1ccc(Oc2nc(-c3ccccn3)nc3ccccc23)cc1 | 5.59 | 10.5 µM | 22.4 µM
COc1cc(OC)c2c(-c3ccccc3)cc(=O)oc2c1C(CCN1CCCCC1)c1ccc2c(c1)OCO2 (stereo not drawn) | 5.04 | 12.8 µM | 13.6 µM
CCOC(=O)CSc1ncnc2c1cnn2-c1ccc(C)cc1 | 5.00 | 22.5 µM | –
CCOC(=O)c1cnn(C(=O)c2ccccc2)c1N | – | > 100 µM | –
COc1ccc2nc(/N=C(\N)NC(=O)N3c4ccccc4Sc4ccccc43)nc(C)c2c1 | 4.55 | > 100 µM | > 40 µM
Cc1nc2ccc(NC(=O)C(F)(F)F)cc2o1 | – | > 100 µM | –
CC(C)c1ccc2nc(N)sc2c1 | 4.36 | > 100 µM | > 40 µM
Cc1sc2nc(CN3CCOCC3)[nH]c(=S)c2c1C | 4.88 | > 100 µM | > 40 µM
CC(=O)Nc1cccc(C(=O)/C=C/c2ccc(C)cc2)c1 | 4.47 | > 100 µM | 13.7 µM
CC[C@H](CO)NCCN[C@H](CC)CO | 6.11 | > 100 µM | –
Cc1cccc(Cc2cnc(N3C(=N)SC(c4ccccc4)C3=O)s2)c1 (stereo not drawn) | 5.05 | > 100 µM | 36.8 µM
CCn1c(=O)c(C(=O)Nc2nc3ccccc3[nH]2)c(O)c2ccccc21 | 6.41 | 0.423 µM | > 40 µM
O=C(CSc1nccc(=O)[nH]1)Nc1ccc(Br)c(Cl)c1 | 4.39 | > 100 µM | –
O=C(CCl)Oc1ccc2occ(C(=O)c3cccs3)c2c1 | – | > 100 µM | –
CC(C)Cc1cc(C(=O)Nc2cc(Br)ccc2O)no1 | 5.41 | > 100 µM | 26.5 µM
O=c1[nH][nH]c(-c2ccccc2O)c1C(C[N+](=O)[O-])c1cccc(Cl)c1 (stereo not drawn) | 5.10 | 13.9 µM | 26.7 µM
C/C=C/C(=O)OCC(=O)Nc1ccc(OC)c(Cl)c1 | 4.70 | > 100 µM | –
CC(C)(C)c1ccc(OCCCC(=O)NC2=NCCS2)cc1 | 4.93 | > 100 µM | > 40 µM
Cc1occc1-c1nnc(SCC(=O)NCCc2ccccc2)o1 | 4.83 | > 100 µM | –
CCC(=Nc1ccccc1O)C1=C(O)CC(c2ccccc2)CC1=O (stereo not drawn) | 5.82 | 1.72 µM | > 40 µM

SMILES | pIC50 | IC90 | CC50
Cc1ccc(C2=Nc3ccccc3SC(c3cccc([N+](=O)[O-])c3)C2)cc1 (stereo not drawn) | 5.43 | 5.74 µM | 33 µM
O=[N+]([O-])c1cc(S(=O)(=O)C(F)(F)F)ccc1Sc1nc2ccccc2s1 | 6.16 | 0.781 µM | 12.6 µM
Cc1ccc(C(=O)/C=C/c2ccc(-c3ccc(C)cc3)o2)cc1 | – | – | 21.9 µM
Cc1ccc([N+](=O)[O-])cc1NC(=O)CN(C(=O)c1ccccc1Cl)C1CCCCC1 | 5.49 | 5.22 µM | –
Cc1ccccc1NC(=O)/C=C/c1ccc([N+](=O)[O-])s1 | 5.84 | 1.92 µM | 18.6 µM
Nc1scc(-c2ccncc2)c1Cl | 5.27 | > 100 µM | > 40 µM
Cc1ccc(Cc2cnc(NC(=O)c3cccs3)s2)cc1 | 5.23 | 6.69 µM | > 40 µM
O=C(C[n+]1cc(-c2ccc(Cl)cc2)n2c1CCC2)N1c2ccccc2Sc2ccccc21 | 4.92 | 13.7 µM | –
CC(C)(C)NC(=O)COC(=O)c1snc(C(=O)NC2CCCCC2)c1N | 5.73 | 3.78 µM | > 40 µM
CCOC(=O)c1ccc(NC(=O)CCOc2ccc(OC)cc2)cc1 | 5.02 | > 100 µM | –
Nc1ccc2c(c1)oc1ccccc12 | 5.71 | > 100 µM | –
OC(CNCCC1C=Nc2ccccc21)Cn1c2ccc(Cl)cc2c2cc(Cl)ccc21 (stereo not drawn) | 5.74 | 2.03 µM | 5.96 µM
COc1ccc(OC)c(C2C3=C(N=c4s/c(=C\c5cccc(O)c5)c(=O)n42)c2ccccc2CC3)c1 (stereo not drawn) | 4.96 | > 100 µM | 19.9 µM
Cc1nc2c(-c3ccc(Cl)cc3)c(C)[nH]n2c(=O)c1Cc1ccccc1 | 5.70 | 9.69 µM | 4.04 µM
CCc1ccc(Nc2nnc(SCC(=O)Nc3cccnc3Cl)s2)cc1 | 5.30 | 13.6 µM | –
CC(=O)CC(=O)Nc1ccc2ccccc2c1 | 4.87 | > 100 µM | –
Cc1cc(Nc2ccccc2)n(-c2nc3ccccc3[nH]2)n1 | > 6.71 | 3.18 µM | > 40 µM
Clc1nc(-c2ccccn2)nc2scc(-c3ccccc3)c12 | 5.03 | 15.5 µM | 19.9 µM
Cc1ccc(Nc2nc(CSc3nnc(-c4cccs4)o3)cs2)cc1 | 5.17 | 15.9 µM | > 40 µM
CN1/C(=C\C(=O)c2cccs2)Sc2ccccc21 | 5.25 | 13.6 µM | > 40 µM
CCN(CC(=O)NC(C)(C)C)C(=O)COc1c(Cl)cc(Cl)c2ccc(C)nc12 | 5.41 | 13.9 µM | 36.8 µM

SMILES | pIC50 | IC90 | CC50
CCCCCOC(=O)c1ccc(OC(=O)c2cncc(Br)c2)cc1 | 4.94 | > 100 µM | –
Cc1sc2cc3c(c(C(=O)c4ccccc4)[n+]2c1C)-c1cccc2cccc-3c12 | 5.82 | 2.33 µM | > 40 µM
CCOC(=O)C1(CCOc2ccccc2)CCN(C(=O)c2ccc(-n3cccn3)cc2)CC1 | 4.57 | > 100 µM | > 40 µM
CC(=O)c1c(C)n(C)c2ccc(O)cc12 | – | > 100 µM | –
CCCC(=O)N1CCN(c2ccc(NC(=O)c3ccc([N+](=O)[O-])o3)cc2)CC1 | 6.00 | 2.22 µM | 3.1 µM
O=C(Nc1ccc2c(c1)OCCO2)c1cccc2nc3ccccc3nc12 | > 6.71 | 2.17 µM | > 40 µM
Cc1nn(-c2ccccc2)c(N)c1C(c1ccc(C(C)C)cc1)c1c(C)nn(-c2ccccc2)c1N | 5.06 | 13 µM | > 40 µM
OC(CNCCc1ccc(C(F)(F)F)cc1)COc1cccc2ccccc12 (stereo not drawn) | 5.24 | 6.42 µM | 13.7 µM
Clc1ccc(-c2ccc(C=Nc3ccc(N4CCOCC4)cc3)o2)cc1 | 5.12 | > 100 µM | –
COc1ccccc1NC(=O)CN1CCN(C2c3ccccc3-c3ccccc32)CC1 | – | > 100 µM | > 40 µM
CC(C)N=c1cc2n(-c3ccc(Cl)cc3)c3ccccc3nc-2cc1Nc1ccc(Cl)cc1 | > 6.41 | < 0.391 µM | > 40 µM
CCOC(=O)c1ccc(NC(=O)CCSCCc2ccccn2)cc1 | 4.26 | > 100 µM | –
Cc1ccc2cc(/C=C/C(=O)c3ccco3)c(Cl)nc2c1 | 4.71 | > 100 µM | > 40 µM
CCOC(=O)Cc1csc(NC(=O)c2c(O)c3ccccc3n(CCC(C)C)c2=O)n1 | > 6.71 | 0.224 µM | 8.48 µM
Cc1ccc(-c2nc3c(cnn3-c3ccccc3)c(=O)o2)cc1 | 5.21 | 13.4 µM | –
Cc1ccc(C(=O)Nc2nc(C)c(C(=O)Nc3ccc4c(c3)CCC4)s2)cc1 | 5.57 | 5.77 µM | 7.56 µM
CC(C)c1ccc(-n2cccc2/C=C2/C(=N)N3C=CSC3=NC2=O)cc1 | 4.92 | > 100 µM | > 40 µM
Cc1ccc(-c2csc(NC(=O)C[n+]3cc(-c4ccc(C)cc4)n4c3CCC4)n2)cc1 | 4.95 | 12.6 µM | –
